The results in this text go back to ChEMBL document CHEMBL1909046, “DrugMatrix in vitro pharmacology data”.

For data set [1], the target named is T1, 3-hydroxy-3-methylglutaryl-coenzyme A reductase (Homo sapiens, UniProt P04035).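 Note: enzyme inhibition assay of HMG-CoA reductase using radiolabeled [14C]HMG-CoA as substrate; in other assays of this panel Not Active means under 50% inhibition at 10 µM.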
T1 sequence (P04035 whole entry): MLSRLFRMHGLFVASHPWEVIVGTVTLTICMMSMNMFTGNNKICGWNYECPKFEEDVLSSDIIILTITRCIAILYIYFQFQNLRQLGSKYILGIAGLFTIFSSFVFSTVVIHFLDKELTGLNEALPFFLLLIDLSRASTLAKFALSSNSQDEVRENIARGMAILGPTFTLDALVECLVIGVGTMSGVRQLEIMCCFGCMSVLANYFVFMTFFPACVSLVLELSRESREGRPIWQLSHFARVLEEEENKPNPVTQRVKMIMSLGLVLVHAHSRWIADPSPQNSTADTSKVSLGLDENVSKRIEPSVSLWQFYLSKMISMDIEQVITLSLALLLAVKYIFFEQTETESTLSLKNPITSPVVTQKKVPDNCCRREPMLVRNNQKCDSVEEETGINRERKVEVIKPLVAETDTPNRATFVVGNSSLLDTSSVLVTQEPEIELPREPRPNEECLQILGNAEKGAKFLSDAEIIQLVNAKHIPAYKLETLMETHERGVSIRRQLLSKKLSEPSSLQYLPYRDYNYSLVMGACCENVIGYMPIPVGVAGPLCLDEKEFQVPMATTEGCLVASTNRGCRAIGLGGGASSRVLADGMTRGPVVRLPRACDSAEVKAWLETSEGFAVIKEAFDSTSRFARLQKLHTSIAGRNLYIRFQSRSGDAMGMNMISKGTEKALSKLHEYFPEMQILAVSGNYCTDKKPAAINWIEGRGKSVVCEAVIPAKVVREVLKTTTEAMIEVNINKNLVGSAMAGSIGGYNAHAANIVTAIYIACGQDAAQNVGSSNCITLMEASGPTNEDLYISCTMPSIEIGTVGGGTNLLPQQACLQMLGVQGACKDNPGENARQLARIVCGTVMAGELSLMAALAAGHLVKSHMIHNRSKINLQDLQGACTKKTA
More on the design: species or system Escherichia coli.

Data set [2] concerns the target Estrogen receptor beta (Homo sapiens, UniProt Q92731). To be noted: sf9. Note: in other assays of this panel Not Active means under 50% inhibition at 10 µM.
Data set [3] addresses Sodium-dependent noradrenaline transporter (Homo sapiens, UniProt P23975). Briefly: DRUGMATRIX: Norepinephrine Transporter radioligand binding (ligand: [125I] RTI-55). The format is cell membranes, MDCK, Membrane. To be noted: Not Active = under 50% inhibition at 10 µM.
A short description of data set [4]: DRUGMATRIX: GABAA, Flunitrazepam, Central radioligand binding (ligand: [3H] Flunitrazepam). The format is cell membranes, Rattus norvegicus, Wistar, Brain, Membrane. Conditions: Not Active = under 50% inhibition at 10 µM.
Data set [5] addresses Platelet-activating factor receptor (Homo sapiens, UniProt P25105). It counts as tissue-based.
In data set [6] the target is Vasopressin V1a receptor (Homo sapiens, UniProt P37288). The format is cell membranes, Membrane. To be noted: hek293. Note: in other assays of this panel Not Active means under 50% inhibition at 10 µM.
Vasopressin V1a receptor, sequence (P37288 whole entry): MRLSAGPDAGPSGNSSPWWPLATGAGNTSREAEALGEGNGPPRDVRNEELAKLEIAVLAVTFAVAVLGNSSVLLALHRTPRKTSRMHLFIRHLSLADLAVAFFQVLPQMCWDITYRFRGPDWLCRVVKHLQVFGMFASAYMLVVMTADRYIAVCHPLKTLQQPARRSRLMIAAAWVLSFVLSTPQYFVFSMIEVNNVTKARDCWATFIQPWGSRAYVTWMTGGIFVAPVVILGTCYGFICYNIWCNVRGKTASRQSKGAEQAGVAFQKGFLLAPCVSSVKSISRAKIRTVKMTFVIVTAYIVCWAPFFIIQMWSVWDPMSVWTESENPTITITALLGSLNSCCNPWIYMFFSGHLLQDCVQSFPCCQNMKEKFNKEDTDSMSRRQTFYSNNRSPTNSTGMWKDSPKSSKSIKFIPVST
For data set [7], the target named is Cytochrome P450 2D6 (Homo sapiens, UniProt P10635). To be noted: bti-tn-5b1-4. Note: in other assays of this panel Not Active means under 50% inhibition at 10 µM.
Cytochrome P450 2D6, sequence (P10635 whole entry): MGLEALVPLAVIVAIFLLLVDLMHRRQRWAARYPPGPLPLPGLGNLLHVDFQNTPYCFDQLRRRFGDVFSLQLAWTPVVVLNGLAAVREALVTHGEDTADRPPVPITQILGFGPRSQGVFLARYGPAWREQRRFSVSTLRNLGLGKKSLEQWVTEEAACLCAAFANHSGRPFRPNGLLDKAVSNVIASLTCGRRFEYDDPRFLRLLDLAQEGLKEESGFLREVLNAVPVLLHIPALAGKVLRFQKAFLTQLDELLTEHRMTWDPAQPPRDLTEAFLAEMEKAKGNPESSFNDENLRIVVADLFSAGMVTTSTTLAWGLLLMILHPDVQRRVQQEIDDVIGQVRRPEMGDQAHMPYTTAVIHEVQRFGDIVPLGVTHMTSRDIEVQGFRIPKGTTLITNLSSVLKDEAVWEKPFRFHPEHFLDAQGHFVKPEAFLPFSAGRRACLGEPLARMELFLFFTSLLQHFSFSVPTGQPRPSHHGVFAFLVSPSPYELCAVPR
In data set [8] the target is Mitogen-activated protein kinase 14 (Homo sapiens, UniProt Q16539). More on the design: species or system Escherichia coli.
Mitogen-activated protein kinase 14, sequence (Q16539 whole entry): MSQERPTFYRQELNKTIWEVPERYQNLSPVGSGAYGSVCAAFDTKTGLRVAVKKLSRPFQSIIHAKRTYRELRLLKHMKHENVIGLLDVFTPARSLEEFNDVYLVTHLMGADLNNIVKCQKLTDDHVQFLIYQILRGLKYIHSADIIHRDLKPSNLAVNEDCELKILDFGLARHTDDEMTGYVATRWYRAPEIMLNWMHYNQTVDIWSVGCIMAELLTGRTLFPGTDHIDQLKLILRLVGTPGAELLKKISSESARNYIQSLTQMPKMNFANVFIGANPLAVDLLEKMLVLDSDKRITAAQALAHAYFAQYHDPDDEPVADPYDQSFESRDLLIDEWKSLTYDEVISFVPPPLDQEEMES

Estrogen receptor beta, sequence (Q92731 whole entry): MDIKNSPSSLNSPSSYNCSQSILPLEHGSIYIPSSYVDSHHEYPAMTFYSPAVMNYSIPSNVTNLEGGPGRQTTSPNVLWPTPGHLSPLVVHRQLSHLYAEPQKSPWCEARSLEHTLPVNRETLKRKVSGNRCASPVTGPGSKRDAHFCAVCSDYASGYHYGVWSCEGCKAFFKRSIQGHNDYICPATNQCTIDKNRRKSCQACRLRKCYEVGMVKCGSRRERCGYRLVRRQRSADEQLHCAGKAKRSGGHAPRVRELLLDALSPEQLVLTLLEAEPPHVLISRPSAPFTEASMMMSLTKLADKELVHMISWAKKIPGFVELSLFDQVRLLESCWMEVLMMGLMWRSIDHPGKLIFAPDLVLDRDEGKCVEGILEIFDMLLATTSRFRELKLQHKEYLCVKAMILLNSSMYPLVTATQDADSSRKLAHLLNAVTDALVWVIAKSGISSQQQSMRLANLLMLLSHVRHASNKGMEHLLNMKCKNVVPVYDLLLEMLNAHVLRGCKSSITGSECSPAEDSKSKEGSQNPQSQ
Sodium-dependent noradrenaline transporter, sequence (P23975 whole entry): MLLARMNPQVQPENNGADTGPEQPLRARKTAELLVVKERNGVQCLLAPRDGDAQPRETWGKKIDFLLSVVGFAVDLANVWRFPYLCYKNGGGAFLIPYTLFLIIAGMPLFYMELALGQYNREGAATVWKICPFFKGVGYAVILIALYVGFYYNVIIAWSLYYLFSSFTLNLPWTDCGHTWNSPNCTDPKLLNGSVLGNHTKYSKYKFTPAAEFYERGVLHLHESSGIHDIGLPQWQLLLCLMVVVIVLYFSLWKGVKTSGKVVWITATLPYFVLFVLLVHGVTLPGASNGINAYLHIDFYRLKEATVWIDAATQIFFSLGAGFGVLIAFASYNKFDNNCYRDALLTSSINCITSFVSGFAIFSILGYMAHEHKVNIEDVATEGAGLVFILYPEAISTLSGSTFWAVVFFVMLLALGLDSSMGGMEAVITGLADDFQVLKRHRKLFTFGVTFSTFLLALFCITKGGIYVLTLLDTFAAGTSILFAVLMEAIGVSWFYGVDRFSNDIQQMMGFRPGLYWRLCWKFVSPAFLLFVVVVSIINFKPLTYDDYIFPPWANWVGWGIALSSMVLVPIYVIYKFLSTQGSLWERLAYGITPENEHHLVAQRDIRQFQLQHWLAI
Platelet-activating factor receptor, sequence (P25105 whole entry): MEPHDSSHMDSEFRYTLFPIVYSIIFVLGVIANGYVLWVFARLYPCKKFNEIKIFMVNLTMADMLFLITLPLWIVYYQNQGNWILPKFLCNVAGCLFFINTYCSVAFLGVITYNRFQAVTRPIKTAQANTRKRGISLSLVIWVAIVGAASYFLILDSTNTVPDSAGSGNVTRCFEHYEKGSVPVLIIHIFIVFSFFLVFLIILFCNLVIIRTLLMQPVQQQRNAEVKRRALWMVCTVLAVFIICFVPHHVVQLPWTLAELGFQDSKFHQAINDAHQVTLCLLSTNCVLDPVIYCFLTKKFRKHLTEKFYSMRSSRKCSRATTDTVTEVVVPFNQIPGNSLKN

For the compound `COc1ccccc1C(=O)N1CCC(Cc2ccccc2)CC1`, the IC50 result in data set [1], in data set [2], in data set [3] (mdck), in data set [4], in data set [5] and in data set [6] was “Not Active” each time. Moreover, the IC50 result in data set [7] was “Not Active”. The Ki result in data set [4] and in data set [7] was “Not Active” each time.
Consider `N=C(Nc1ccccc1)Nc1ccccc1`, for which the IC50 entry was “Not Active” in data set [1]; “Not Active” in data set [2]; 1150 nM in data set [3] (read-out: IC50); “Not Active” in data set [4]; “Not Active” in data set [5]; “Not Active” in data set [6]. Moreover, the 50% inhibitory concentration (IC50) result in data set [8] was “Not Active”. The Ki was 1140 nM in data set [3] (read-out: Ki) and “Not Active” in data set [4].
Take `C[C@](O)(CS(=O)(=O)c1ccc(F)cc1)C(=O)Nc1ccc(C#N)c(C(F)(F)F)c1` [(R)-BICALUTAMIDE]: the IC50 entry in data set [1], in data set [2], in data set [4], in data set [5], in data set [6] and in data set [7] was “Not Active” throughout. Further, in data set [8], the half-inhibitory concentration (IC50) entry is recorded as “Not Active”. Moreover, the Ki result in data set [4] and in data set [7] was “Not Active” throughout.
With `CCCCN1CCCCC1C(=O)Nc1c(C)cccc1C.Cl` (stereo unspecified) [BUPIVACAINE HYDROCHLORIDE], the IC50 entry in data set [1], in data set [2], in data set [3] (mdck), in data set [4], in data set [5] and in data set [6] was “Not Active” in each case. Also, in data set [8], the IC50 entry is on record as “Not Active”. Also, in data set [4], the Ki result is given as “Not Active”.
For `O=NN(CCCl)C(=O)NCCCl` [CARMUSTINE], the IC50 entry in data set [1], in data set [2], in data set [3] (mdck), in data set [4], in data set [5] and in data set [6] was “Not Active” throughout. In data set [8], the IC50 entry is listed as “Not Active”. For the same compound, the Ki result in data set [4] was “Not Active”.
Turning to `CC1=C(C(=O)O)N2C(=O)[C@@H](NC(=O)[C@H](N)c3ccccc3)[C@H]2SC1` [CEPHALEXIN ANHYDROUS], the IC50 result in data set [1], in data set [2], in data set [3] (mdck), in data set [4], in data set [5] and in data set [6] was “Not Active” in each case. Further, the IC50 result in data set [8] was “Not Active”. Besides, the Ki result in data set [4] is on record as “Not Active”.
As to `O=C(N[C@H](CO)[C@H](O)c1ccc([N+](=O)[O-])cc1)C(Cl)Cl` [CHLORAMPHENICOL], the half-inhibitory concentration (IC50) entry in data set [1], in data set [2], in data set [3] (mdck), in data set [4], in data set [5] and in data set [6] was “Not Active” throughout. Besides, the IC50 result in data set [8] is “Not Active”. Besides, the inhibition constant Ki result in data set [4] is “Not Active”.
In the case of `CCOC(=O)C(C)(C)Oc1ccc(Cl)cc1` [CLOFIBRATE], the half-maximal inhibitory concentration (IC50) entry in data set [1], in data set [2], in data set [3] (mdck), in data set [4], in data set [5] and in data set [6] was “Not Active” throughout. The IC50 result in data set [8] was “Not Active”. Moreover, the Ki result in data set [4] was “Not Active”.
In the case of `C[C@@H]1C[C@@H]([C@H](O)CC2CC(=O)NC(=O)C2)C(=O)[C@@H](C)C1` [CYCLOHEXIMIDE], the IC50 result in data set [1], in data set [2], in data set [3] (mdck), in data set [4], in data set [5] and in data set [6] was “Not Active” throughout. The IC50 result in data set [8] is reported as “Not Active”. The Ki result in data set [4] is given as “Not Active”.
Regarding `CCN1CC(CCN2CCOCC2)C(c2ccccc2)(c2ccccc2)C1=O` (stereo unspecified) [DOXAPRAM], the IC50 result in data set [1], in data set [2], in data set [3] (mdck), in data set [4], in data set [5] and in data set [6] was “Not Active” in each case. Moreover, the half-maximal inhibitory concentration (IC50) result in data set [8] is listed as “Not Active”. For the same compound, in data set [4], the inhibition constant Ki result is “Not Active”.
For `CN(C)c1ccc(C(=C2C=CC(=[N+](C)C)C=C2)c2ccc(N(C)C)cc2)cc1.[Cl-]` [GENTIAN VIOLET], the concentration for half-maximal inhibition (IC50) result in data set [1], in data set [2], in data set [3] (mdck), in data set [4], in data set [5] and in data set [6] was “Not Active” in each case. Moreover, in data set [8], the IC50 entry is given as “Not Active”. Moreover, the Ki entry in data set [4] is on record as “Not Active”.
For the compound `NC(=O)NO` [HYDROXYUREA], the IC50 result in data set [1], in data set [2], in data set [3] (mdck), in data set [4], in data set [5] and in data set [6] was “Not Active” in each case. The IC50 result in data set [8] is “Not Active”. For the same compound, the Ki result in data set [4] was “Not Active”.
Consider `CCn1cc(C(=O)O)c(=O)c2cc(F)c(N3CCN(C)CC3)cc21` [PEFLOXACIN], for which the IC50 entry in data set [1], in data set [2], in data set [3] (mdck), in data set [4], in data set [5] and in data set [6] was “Not Active” throughout. Further, the IC50 entry in data set [8] is on record as “Not Active”. Further, in data set [4], the Ki result is given as “Not Active”.
`CCCN(CCC)C(=O)C(CCC(=O)O)NC(=O)c1ccccc1` (stereo unspecified) [PROGLUMIDE]: the concentration for half-maximal inhibition (IC50) result in data set [1], in data set [3] (mdck), in data set [4], in data set [5], in data set [6] and in data set [7] was “Not Active” each time. Moreover, the 50% inhibitory concentration (IC50) result in data set [8] is given as “Not Active”. The inhibitory constant (Ki) result in data set [4] and in data set [7] was “Not Active” each time.
`OC(CCN1CCCCC1)(c1ccccc1)C1CCCCC1` (stereo unspecified) [TRIHEXYPHENIDYL]: the concentration for half-maximal inhibition (IC50) entry in data set [1], in data set [2], in data set [3] (mdck), in data set [4], in data set [5] and in data set [6] was “Not Active” in each case. In addition, the IC50 entry in data set [8] is listed as “Not Active”. Further, the Ki result in data set [4] was “Not Active”.
Consider `Cc1cc2cc3c(C)cc(=O)oc3c(C)c2o1` [TRIOXSALEN], for which the 50% inhibitory concentration (IC50) result in data set [1], in data set [3] (mdck), in data set [4], in data set [5], in data set [6] and in data set [7] was “Not Active” in each case. Moreover, the IC50 entry in data set [8] is “Not Active”. The Ki result in data set [4] and in data set [7] was “Not Active” throughout.
Turning to `CCCC(CCC)C(=O)O` [VALPROIC ACID], the IC50 result in data set [1], in data set [3] (mdck), in data set [4], in data set [5], in data set [6] and in data set [7] was “Not Active” each time. Also, the IC50 entry in data set [8] is reported as “Not Active”. The Ki result in data set [4] and in data set [7] was “Not Active” each time.
For the compound `CCC1=C[C@@H]2CN(C1)Cc1c([nH]c3ccccc13)[C@@](C(=O)OC)(c1cc3c(cc1OC)N(C)[C@H]1[C@@](O)(C(=O)OC)[C@H](OC(C)=O)[C@]4(CC)C=CCN5CC[C@]31[C@@H]54)C2` [VINORELBINE], the IC50 result in data set [1], in data set [3] (mdck), in data set [4], in data set [5], in data set [6] and in data set [7] was “Not Active” throughout. Moreover, the IC50 result in data set [8] was “Not Active”. Moreover, the inhibition constant (Ki) result in data set [4] and in data set [7] was “Not Active” each time.

The term IC50 denotes the concentration that inhibits the measured activity by half. For orientation: Ki means the dissociation constant of the complex between target and ligand, obtained from inhibition or displacement.
